Data published in PMC4053376, “Characterization of the Xiamenmycin Biosynthesis Gene Cluster in Streptomyces xiamenensis 318” (PLoS ONE, 2014).

Legend:
XimB = molecular target: T1, XimB (Streptomyces xiamenensis, UniProt U5PZQ3); assay: membrane fraction, product […] by UPLC-Q-TOF-MS; type: biochemical; details: 0.3 mM GPP, 0.5 mM 4HB, 5 mM MgSO4, 50 mM Tris-HCl pH 7.5, 30 °C
T1 construct: full-length 313 aa; N-terminal His tag, pET28a, E. coli BL21(DE3) membrane fraction; twelve predicted transmembrane helices
T1 sequence (U5PZQ3 1-313): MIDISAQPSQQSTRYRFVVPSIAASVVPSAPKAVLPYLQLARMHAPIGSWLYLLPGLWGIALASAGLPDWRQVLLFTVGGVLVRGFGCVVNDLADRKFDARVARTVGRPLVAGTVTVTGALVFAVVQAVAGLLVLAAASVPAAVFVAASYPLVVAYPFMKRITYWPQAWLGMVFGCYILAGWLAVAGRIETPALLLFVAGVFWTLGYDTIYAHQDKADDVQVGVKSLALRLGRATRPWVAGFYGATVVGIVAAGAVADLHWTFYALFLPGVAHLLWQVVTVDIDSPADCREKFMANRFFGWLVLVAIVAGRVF

XimC = molecular target: T2, XimC (Streptomyces xiamenensis, UniProt U5Q2Q4); assay: product 4HB by GC-MS; type: biochemical; details: 50 mM Tris-HCl pH 7.5, 30 °C, 30 min
T2 construct: full-length 196 aa; N-terminal His6 tag, pET28a, E. coli BL21(DE3), Ni-NTA purified
T2 sequence (U5Q2Q4 entry or part of it): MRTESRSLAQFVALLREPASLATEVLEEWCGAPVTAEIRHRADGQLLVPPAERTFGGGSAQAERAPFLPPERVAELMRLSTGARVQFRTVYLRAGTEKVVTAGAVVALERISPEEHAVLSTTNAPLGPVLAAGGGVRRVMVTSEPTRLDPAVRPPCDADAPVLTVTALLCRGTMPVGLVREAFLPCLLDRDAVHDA

SMILES	membrane fraction, product 2 by UPLC-Q-TOF-MS (XimB)	product 4HB by GC-MS (XimC)
O=C(O)c1ccc(O)cc1 [4-hydroxybenzoic acid]	membrane fraction containing XimB was incubated with 4HB and GPP	
C=C(O[C@@H]1C=C(C(=O)O)C=C[C@H]1O)C(=O)O [chorismate]		incubated with chorismate, the formation of 4HB was observed and confirmed by GC-MS
CC(C)=CCC/C(C)=C/COP(=O)(O)OP(=O)(O)O [geranyl diphosphate]	membrane fraction containing XimB was incubated with 4HB and GPP	
